Measurements taken from ChEMBL document CHEMBL4507310, “Data for DCP probe A-1211212” (2021).

Columns and labels:
[1] = molecular target: cGMP-dependent protein kinase 1 (Homo sapiens) (UniProt Q13976); conditions: Compound concentration 1000.0 nM
[2] = molecular target: Motilin receptor (Homo sapiens) (UniProt O43193); assay: motilin (h Eurofins-Cerep binding assay; set-up: ligand concentration 0.05 nM; conditions: filed as agonist, Compound concentration 10.0 uM
[3] = molecular target: Serine/threonine-protein kinase DCLK1 (Homo sapiens) (UniProt O15075); conditions: Compound concentration 1000.0 nM
[4] = molecular target: P2X receptor (Rattus norvegicus) (UniProt P51579+P49653+P51578+Q64663+P47824+P51577+P49654); assay: P2X Eurofins-Cerep binding assay; format: protein assay; set-up: ligand concentration 3 nM; conditions: filed as agonist, Compound concentration 10.0 uM
[5] = molecular target: LIM domain kinase 1 (Homo sapiens) (UniProt P53667); conditions: Compound concentration 1000.0 nM
[6] = molecular target: Ephrin type-A receptor 8 (Homo sapiens) (UniProt P29322); conditions: Compound concentration 1000.0 nM
[7] = molecular target: Interleukin-1 receptor-associated kinase 1 (Homo sapiens) (UniProt P51617); conditions: Compound concentration 1000.0 nM
[8] = molecular target: Alpha-2C adrenergic receptor (Homo sapiens) (UniProt P18825); conditions: Compound concentration 10.0 uM
[9] = molecular target: Tyrosine-protein kinase ZAP-70 (Homo sapiens) (UniProt P43403); conditions: Compound concentration 1000.0 nM
[10] = molecular target: Protein kinase C epsilon type (Homo sapiens) (UniProt Q02156); conditions: Compound concentration 1000.0 nM
[11] = molecular target: Ribosomal protein S6 kinase alpha-6 (Homo sapiens) (UniProt Q9UK32); conditions: Compound concentration 1000.0 nM
[12] = molecular target: T1, Muscarinic acetylcholine receptor M2 (Homo sapiens) (UniProt P08172); conditions: Compound concentration 10.0 uM
T1 sequence (whole entry): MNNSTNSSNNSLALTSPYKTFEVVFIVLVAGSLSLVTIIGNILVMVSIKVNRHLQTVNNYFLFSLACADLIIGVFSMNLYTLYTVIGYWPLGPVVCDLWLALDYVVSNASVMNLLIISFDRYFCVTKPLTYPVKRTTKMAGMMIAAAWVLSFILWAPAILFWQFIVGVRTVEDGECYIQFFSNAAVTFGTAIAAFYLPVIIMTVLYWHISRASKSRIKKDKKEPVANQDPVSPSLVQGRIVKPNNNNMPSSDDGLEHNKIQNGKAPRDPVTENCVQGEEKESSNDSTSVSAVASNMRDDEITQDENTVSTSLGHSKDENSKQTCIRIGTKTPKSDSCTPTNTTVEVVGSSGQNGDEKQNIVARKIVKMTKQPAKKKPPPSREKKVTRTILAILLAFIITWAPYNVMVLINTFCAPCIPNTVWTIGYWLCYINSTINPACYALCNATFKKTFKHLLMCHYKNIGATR

[13] = system: Epidermal growth factor receptor (Homo sapiens), P00533 [L858R]; conditions: Compound concentration 1000.0 nM
[14] = system: Epidermal growth factor receptor (Homo sapiens), P00533 [T790M]; conditions: Compound concentration 1000.0 nM
[15] = molecular target: Activin receptor type-2A (Homo sapiens) (UniProt P27037); conditions: Compound concentration 1000.0 nM
[16] = molecular target: Mitotic checkpoint serine/threonine-protein kinase BUB1 (Homo sapiens) (UniProt O43683); conditions: Compound concentration 1000.0 nM
[17] = molecular target: cGMP-inhibited 3',5'-cyclic phosphodiesterase 3A (Homo sapiens) (UniProt Q14432); assay: PDE3A (h) Eurofins-Cerep enzyme and uptake assay; conditions: Compound concentration 10.0 uM
[18] = molecular target: Cyclin-dependent kinase 19 (Homo sapiens) (UniProt Q9BWU1); conditions: Compound concentration 1000.0 nM
[19] = molecular target: Receptor tyrosine-protein kinase erbB-2 (Homo sapiens) (UniProt P04626); conditions: Compound concentration 1000.0 nM
[20] = molecular target: Tyrosine-protein kinase receptor Tie-1 (Homo sapiens) (UniProt P35590); conditions: Compound concentration 1000.0 nM
[21] = molecular target: Ephrin type-A receptor 4 (Homo sapiens) (UniProt P54764); conditions: Compound concentration 1000.0 nM
[22] = molecular target: Protein-tyrosine kinase 2-beta (Homo sapiens) (UniProt Q14289); conditions: Compound concentration 1000.0 nM
[23] = molecular target: Calcitonin-gene-related peptide receptor, CALCRL/RAMP1 (Homo sapiens) (UniProt O60894+Q16602); assay: CGRP (h) Eurofins-Cerep binding assay; format: protein-complex assay; set-up: ligand concentration 0.03 nM; conditions: filed as agonist, Compound concentration 10.0 uM
[24] = molecular target: Cyclin-dependent kinase 4 (Homo sapiens) (UniProt P11802); conditions: Compound concentration 1000.0 nM
[25] = molecular target: Platelet-derived growth factor receptor beta (Homo sapiens) (UniProt P09619); conditions: Compound concentration 1000.0 nM
[26] = molecular target: Peroxisome proliferator-activated receptor gamma (Homo sapiens) (UniProt P37231); assay: PPARgamma (h) Eurofins-Cerep binding assay; set-up: ligand concentration 5 nM; conditions: filed as agonist, Compound concentration 10.0 uM
[27] = system: Epidermal growth factor receptor (Homo sapiens), P00533 [UNDEFINED MUTATION]; conditions: Compound concentration 1000.0 nM
[28] = molecular target: Tyrosine-protein kinase Mer (Homo sapiens) (UniProt Q12866); conditions: Compound concentration 1000.0 nM
[29] = molecular target: Serine/threonine-protein kinase 25 (Homo sapiens) (UniProt O00506); conditions: Compound concentration 1000.0 nM
[30] = molecular target: Mitogen-activated protein kinase kinase kinase kinase 3 (Homo sapiens) (UniProt Q8IVH8); conditions: Compound concentration 1000.0 nM
[31] = system: Phosphatidylinositol 4,5-bisphosphate 3-kinase catalytic subunit alpha isoform (Homo sapiens), P42336 [E542K]; conditions: Compound concentration 1000.0 nM
[32] = molecular target: Ribosomal protein S6 kinase alpha-4 (Homo sapiens) (UniProt O75676); conditions: Compound concentration 1000.0 nM
[33] = molecular target: Serine/threonine-protein kinase Nek11 (Homo sapiens) (UniProt Q8NG66); conditions: Compound concentration 1000.0 nM
[34] = molecular target: Phosphatidylinositol 4,5-bisphosphate 3-kinase catalytic subunit beta isoform (Homo sapiens) (UniProt P42338); conditions: Compound concentration 1000.0 nM
[35] = molecular target: NUAK family SNF1-like kinase 2 (Homo sapiens) (UniProt Q9H093); conditions: Compound concentration 1000.0 nM
[36] = molecular target: Serine/threonine-protein kinase Nek2 (Homo sapiens) (UniProt P51955); conditions: Compound concentration 1000.0 nM
[37] = molecular target: High affinity nerve growth factor receptor (Homo sapiens) (UniProt P04629); conditions: Compound concentration 1000.0 nM
[38] = molecular target: Bone morphogenetic protein receptor type-1B (Homo sapiens) (UniProt O00238); conditions: Compound concentration 1000.0 nM

Sequence of LIM domain kinase 1 (Homo sapiens) (P53667 whole entry, looked up, the tested form may be a part): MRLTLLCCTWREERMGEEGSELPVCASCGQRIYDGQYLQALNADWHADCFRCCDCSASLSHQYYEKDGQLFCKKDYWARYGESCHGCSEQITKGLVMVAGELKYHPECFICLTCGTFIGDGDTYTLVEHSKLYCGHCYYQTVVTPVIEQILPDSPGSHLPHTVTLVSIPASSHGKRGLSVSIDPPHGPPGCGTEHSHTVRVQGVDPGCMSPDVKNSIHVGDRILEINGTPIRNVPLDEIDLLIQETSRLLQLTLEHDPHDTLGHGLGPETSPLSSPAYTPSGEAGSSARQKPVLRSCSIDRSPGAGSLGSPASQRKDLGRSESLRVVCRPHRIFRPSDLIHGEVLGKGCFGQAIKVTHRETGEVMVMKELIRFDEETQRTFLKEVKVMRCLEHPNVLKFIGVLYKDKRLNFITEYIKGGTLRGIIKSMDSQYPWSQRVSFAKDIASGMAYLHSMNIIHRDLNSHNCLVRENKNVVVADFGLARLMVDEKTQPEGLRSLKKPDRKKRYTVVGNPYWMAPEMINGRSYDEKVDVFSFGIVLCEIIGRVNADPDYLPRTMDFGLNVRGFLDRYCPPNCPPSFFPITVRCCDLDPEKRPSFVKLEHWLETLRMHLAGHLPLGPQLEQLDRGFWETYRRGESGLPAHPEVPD
Sequence of Ephrin type-A receptor 8 (Homo sapiens) (P29322 whole entry): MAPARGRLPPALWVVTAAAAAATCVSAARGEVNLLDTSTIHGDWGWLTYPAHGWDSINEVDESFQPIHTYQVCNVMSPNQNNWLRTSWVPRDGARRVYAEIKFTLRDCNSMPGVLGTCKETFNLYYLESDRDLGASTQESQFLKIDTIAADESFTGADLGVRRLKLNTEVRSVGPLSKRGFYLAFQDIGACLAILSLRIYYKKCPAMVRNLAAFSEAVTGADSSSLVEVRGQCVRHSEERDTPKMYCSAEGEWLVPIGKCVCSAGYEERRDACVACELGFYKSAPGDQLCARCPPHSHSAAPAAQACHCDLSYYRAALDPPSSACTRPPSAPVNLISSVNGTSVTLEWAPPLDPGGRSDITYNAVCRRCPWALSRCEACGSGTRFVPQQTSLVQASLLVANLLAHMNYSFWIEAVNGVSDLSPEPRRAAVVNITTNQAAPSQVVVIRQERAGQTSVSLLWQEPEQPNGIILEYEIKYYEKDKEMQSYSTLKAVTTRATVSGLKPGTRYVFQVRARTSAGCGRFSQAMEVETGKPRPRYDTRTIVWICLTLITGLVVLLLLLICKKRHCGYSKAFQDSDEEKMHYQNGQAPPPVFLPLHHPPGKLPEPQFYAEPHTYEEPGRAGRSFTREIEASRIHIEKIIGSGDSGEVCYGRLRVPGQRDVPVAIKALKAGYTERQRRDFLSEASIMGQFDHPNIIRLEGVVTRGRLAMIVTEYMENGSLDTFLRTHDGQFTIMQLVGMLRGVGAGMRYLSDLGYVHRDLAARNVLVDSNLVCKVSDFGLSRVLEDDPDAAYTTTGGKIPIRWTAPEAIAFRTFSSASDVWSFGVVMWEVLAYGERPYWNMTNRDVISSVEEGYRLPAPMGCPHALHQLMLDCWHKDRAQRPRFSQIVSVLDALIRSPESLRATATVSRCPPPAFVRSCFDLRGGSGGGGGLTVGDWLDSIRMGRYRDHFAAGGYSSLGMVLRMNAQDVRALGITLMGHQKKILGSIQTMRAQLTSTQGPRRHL
Sequence of Mitotic checkpoint serine/threonine-protein kinase BUB1 (Homo sapiens) (O43683 whole entry, looked up): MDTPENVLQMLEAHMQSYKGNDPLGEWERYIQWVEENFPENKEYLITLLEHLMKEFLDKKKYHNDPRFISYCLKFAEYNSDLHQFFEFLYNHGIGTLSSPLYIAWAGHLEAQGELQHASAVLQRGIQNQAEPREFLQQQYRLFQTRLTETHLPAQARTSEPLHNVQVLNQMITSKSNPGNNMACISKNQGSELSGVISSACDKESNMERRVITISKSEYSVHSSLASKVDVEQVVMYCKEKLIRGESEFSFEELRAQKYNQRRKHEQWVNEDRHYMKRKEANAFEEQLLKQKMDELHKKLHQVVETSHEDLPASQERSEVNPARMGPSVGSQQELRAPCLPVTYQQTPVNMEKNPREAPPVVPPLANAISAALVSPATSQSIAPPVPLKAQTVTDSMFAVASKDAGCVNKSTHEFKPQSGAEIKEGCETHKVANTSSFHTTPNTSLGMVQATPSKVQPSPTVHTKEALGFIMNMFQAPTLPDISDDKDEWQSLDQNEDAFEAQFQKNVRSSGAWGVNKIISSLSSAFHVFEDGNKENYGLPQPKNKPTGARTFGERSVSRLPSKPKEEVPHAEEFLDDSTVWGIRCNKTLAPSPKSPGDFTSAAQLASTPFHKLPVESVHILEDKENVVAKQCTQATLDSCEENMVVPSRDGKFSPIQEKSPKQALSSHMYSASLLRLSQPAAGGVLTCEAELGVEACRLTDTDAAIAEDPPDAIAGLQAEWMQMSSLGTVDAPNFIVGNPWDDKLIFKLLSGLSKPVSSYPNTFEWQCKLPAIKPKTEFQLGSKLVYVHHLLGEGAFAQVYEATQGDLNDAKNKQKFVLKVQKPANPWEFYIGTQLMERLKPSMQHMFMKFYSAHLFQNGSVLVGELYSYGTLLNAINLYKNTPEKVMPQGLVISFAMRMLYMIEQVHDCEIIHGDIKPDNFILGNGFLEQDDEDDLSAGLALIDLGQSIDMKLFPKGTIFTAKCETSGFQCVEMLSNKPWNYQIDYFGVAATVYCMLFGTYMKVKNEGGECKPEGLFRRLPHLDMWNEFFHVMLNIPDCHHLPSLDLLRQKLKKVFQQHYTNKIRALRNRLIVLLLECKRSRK
Sequence of cGMP-dependent protein kinase 1 (Homo sapiens) (Q13976 whole entry): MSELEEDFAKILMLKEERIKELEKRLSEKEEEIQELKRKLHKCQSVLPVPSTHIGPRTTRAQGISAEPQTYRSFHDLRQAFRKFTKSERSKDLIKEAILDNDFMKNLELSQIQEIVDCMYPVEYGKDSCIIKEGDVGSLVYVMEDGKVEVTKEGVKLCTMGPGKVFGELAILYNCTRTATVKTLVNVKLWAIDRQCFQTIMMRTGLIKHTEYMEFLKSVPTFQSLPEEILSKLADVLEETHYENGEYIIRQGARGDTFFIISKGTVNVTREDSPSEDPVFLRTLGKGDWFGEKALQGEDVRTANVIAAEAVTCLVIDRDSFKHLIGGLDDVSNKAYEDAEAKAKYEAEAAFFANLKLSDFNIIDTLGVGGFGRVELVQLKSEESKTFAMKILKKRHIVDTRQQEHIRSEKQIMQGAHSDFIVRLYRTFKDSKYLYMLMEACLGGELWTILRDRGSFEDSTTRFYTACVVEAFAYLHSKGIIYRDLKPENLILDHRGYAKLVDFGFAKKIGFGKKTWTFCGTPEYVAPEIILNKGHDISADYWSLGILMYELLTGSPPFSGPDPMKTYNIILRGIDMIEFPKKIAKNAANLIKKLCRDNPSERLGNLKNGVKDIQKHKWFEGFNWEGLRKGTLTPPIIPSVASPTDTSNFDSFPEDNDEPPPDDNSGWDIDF
Sequence of Tyrosine-protein kinase Mer (Homo sapiens) (Q12866 whole entry): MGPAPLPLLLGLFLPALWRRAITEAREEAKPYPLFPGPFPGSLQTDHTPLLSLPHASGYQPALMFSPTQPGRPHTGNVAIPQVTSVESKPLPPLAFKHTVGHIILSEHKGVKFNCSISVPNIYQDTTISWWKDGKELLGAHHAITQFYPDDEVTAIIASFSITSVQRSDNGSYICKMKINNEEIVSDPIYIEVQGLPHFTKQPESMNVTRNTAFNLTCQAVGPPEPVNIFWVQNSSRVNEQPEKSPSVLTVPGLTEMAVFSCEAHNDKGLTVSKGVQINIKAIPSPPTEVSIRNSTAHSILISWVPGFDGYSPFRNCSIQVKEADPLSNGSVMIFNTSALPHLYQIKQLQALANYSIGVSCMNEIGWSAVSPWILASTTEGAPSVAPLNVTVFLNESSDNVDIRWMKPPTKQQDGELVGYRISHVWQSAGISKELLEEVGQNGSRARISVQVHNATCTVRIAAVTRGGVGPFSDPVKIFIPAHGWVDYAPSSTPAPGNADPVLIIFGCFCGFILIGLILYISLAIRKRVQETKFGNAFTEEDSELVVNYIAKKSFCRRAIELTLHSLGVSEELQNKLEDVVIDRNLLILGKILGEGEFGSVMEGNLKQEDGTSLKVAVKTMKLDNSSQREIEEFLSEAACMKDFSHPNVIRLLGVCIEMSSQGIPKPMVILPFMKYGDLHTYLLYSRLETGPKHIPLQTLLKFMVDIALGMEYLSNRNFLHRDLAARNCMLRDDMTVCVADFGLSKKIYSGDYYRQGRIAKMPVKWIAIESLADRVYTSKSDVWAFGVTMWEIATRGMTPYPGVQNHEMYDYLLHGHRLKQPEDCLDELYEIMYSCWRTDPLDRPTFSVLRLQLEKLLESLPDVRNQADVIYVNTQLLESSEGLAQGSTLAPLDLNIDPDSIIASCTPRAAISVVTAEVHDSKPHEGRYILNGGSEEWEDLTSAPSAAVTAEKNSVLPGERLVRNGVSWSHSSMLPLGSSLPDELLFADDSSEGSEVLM
Sequence of Motilin receptor (Homo sapiens) (O43193 whole entry): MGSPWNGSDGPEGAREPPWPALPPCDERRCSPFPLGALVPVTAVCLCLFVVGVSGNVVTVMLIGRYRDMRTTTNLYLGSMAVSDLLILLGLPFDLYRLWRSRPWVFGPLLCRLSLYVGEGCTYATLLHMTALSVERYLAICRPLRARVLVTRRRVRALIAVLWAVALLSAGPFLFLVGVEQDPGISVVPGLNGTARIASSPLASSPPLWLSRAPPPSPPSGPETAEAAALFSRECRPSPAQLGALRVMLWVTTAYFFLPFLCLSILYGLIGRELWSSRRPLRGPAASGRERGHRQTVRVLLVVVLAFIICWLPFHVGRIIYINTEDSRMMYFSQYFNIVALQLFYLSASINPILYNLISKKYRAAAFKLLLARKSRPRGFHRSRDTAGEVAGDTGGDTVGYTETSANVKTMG

SMILES | residual activity [1] [%] | % Inhibition of Control Specific Binding (Mean n=2) [2] [%] | residual activity [3] [%] | % Inhibition of Control Specific Binding (Mean n=2) [4] [%] | residual activity [5] [%] | residual activity [6] [%] | residual activity [7] [%] | inhibition [8] [%] | residual activity [9] [%] | residual activity [10] [%] | residual activity [11] [%] | inhibition [12] [%] | residual activity [13] [%] | residual activity [14] [%] | residual activity [15] [%] | residual activity [16] [%] | % Inhibition of Control Values (Mean n=2) [17] [%] | residual activity [18] [%] | residual activity [19] [%] | residual activity [20] [%] | other results
O=C(NS(=O)(=O)c1ccc(NCC2CCOCC2)c([N+](=O)[O-])c1)c1ccc(N2CCN(Cc3ccc(C(F)(F)F)cc3-c3ccc(Cl)cc3)CC2)cc1Oc1cnc2[nH]ccc2c1 [A-1210227] | 96 | -13 | 100 | 10 | 85 | 84 | 96 | 12.7 | 82 | 100 | 100 | 1.6 | 90 | 98 | 93 | 100 | 6 | 90 | 100 | 100 | residual activity [21]: 100%; residual activity [22]: 100%; % Inhibition of Control Specific Binding (Mean n=2) [23]: -57.7%; residual activity [24]: 100%; residual activity [25]: 100%; % Inhibition of Control Specific Binding (Mean n=2) [26]: 9.3%; residual activity [27]: 88%; residual activity [28]: 100%; residual activity [29]: 98%; residual activity [30]: 92%; residual activity [31]: 98%; residual activity [32]: 100%; residual activity [33]: 97%; residual activity [34]: 100%; residual activity [35]: 88%; residual activity [36]: 100%; residual activity [37]: 100%; residual activity [38]: 89%
CO[C@H]1CC[C@H](CNc2ccc(S(=O)(=O)NC(=O)c3ccc(N4CCN(CC5=C(c6ccc(Cl)cc6)CC(C)(C)CC5)CC4)cc3Oc3cnc4[nH]ccc4c3)cc2[N+](=O)[O-])CC1 [A-1211212] | 92 | -20.5 | 100 | -2.7 | 89 | 84 | 96 | 15.6 | 97 | 79 | 81 | -2.68 | 60 | 98 | 91 | 73 | 4.9 | 73 | 54 | 100 | residual activity [21]: 88%; residual activity [22]: 87%; % Inhibition of Control Specific Binding (Mean n=2) [23]: -8%; residual activity [24]: 100%; residual activity [25]: 99%; % Inhibition of Control Specific Binding (Mean n=2) [26]: 28.5%; residual activity [27]: 65%; residual activity [28]: 85%; residual activity [29]: 83%; residual activity [30]: 99%; residual activity [31]: 94%; residual activity [32]: 95%; residual activity [33]: 100%; residual activity [34]: 100%; residual activity [35]: 95%; residual activity [36]: 100%; residual activity [37]: 100%; residual activity [38]: 92%
